Experiment [1] concerns Staphylococcus epidermidis ATCC 12228. The experiment can be described thus: Minimum inhibitory concentration (MIC) assay, Staphylococcus epidermidis ATCC 12228. Conditions: ATCC12228, aerobic culture 35+/-2°C, 16 to 20 hours, read with naked eyes. It counts as cell-based. Here is the method: On the day of the experiment, the compound in the flask was dissolved in 100% DMSO until the concentration of mother liquor was 0.4 mg/mL. If the mother liquor was not used on the same day, it was stored at −80° C. for future use.
The compound mother liquor and standard antibiotics were subjected to 2-fold gradient dilution with corresponding solvents on a 96-microwell plate (V-bottom) to obtain 100× working solutions (Well 1 to Well 7) in sequence. Among them, the concentrations of the compound were 400 μg/mL, 200 μg/mL, 100 μg/mL, 50 μg/mL, 25 μg/mL, 12.5 μg/mL, 6.25 μg/mL, and 3.125 μg/mL. 100% DMSO was used as growth control (Well 8). As such, the compound motherplate was obtained.
One day before the experiment, aerobic bacteria (Staphylococcus epidermidis) stored in a cryogenic tube at −80° C. were scribed on an MHA (Cation-adjusted Mueller-Hinton agar) plate. The aerobic bacteria were placed in a 35+/−2° C. incubator for 18-24 hours of aerobic cultivation.
On the day of the experiment, the plate was taken out, clones were picked from the plate and suspended in physiological saline. Then, the turbidity of the bacterial suspension (containing 1.0-2.0×10^8 CFU/mL) was adjusted to OD600=0.2 by a turbidity meter. Then, the adjusted bacterial suspension was diluted to an appropriate concentration with the assay culture medium: about 5×10^5 CFU/mL for aerobic bacteria, and about 1×10^6 CFU/mL for anaerobic bacteria. As such, the inoculating solution was obtained.
2 μl of 2-fold series dilution of 100× high-concentration working solution was transferred from a compound mother plate (prepared in step 1) to a round-bottom 96-well plate, and then 198 μL of bacterial inoculating solution (prepared in step 2) was added to each well to obtain an MIC assay plate. Therefore, the final assay concentrations of the compound were 4 μg/mL, 2 μg/mL, 1 μg/mL, 0.5 μg/mL, 0.25 μg/mL, 0.125 μg/mL, 0.06 μg/mL and 0.03 μg/mL. The total volume of each well on the assay plate was 200 μL: containing 1% DMSO, about 5×10^5 CFU/mL of aerobic bacteria and about 1×10^6 CFU/mL of anaerobic bacteria.
All assay plates for aerobic bacteria were aerobically cultured at 35+/−2° C. for 16 to 20 hours, and all assay plates for anaerobic bacteria were anaerobically cultured in an anaerobic incubator at 35+/−2° C. for 48 hours.

A further experiment has as its system CXCL1/KC. The experiment can be described thus: Acne model in mice: CXCL1 level in left ear tissue. It counts as in vivo, Balb/C mice. On the procedure:
Experimental strain: Propionibacterium acnes ATCC 6919 (Beijing Biobw Biotechnology Co., Ltd.) Experimental animals: Balb/C mice (Zhejiang Vital River Laboratory Animal Technology Co., Ltd.) Balb/C mice were grouped and numbered, and adaptively fed for one week. On the day of modeling, Propionibacterium acnes was taken, and OD600 was measured using a microplate reader. BH1 culture medium was diluted to OD600=1 (about 5×10^8 CFU/mL), centrifuged to discard supernatant, and the remaining culture was diluted to 1×10^8 CFU/mL with PBS. Once the molding began, the mice were anesthetized with a small animal anesthesia machine, the air flow and isoflurane content of the anesthesia machine were adjusted, and the mice were placed in an anesthesia induction chamber for anesthesia induction. […] Mouse BCA protein detection: after Propionibacterium acnes was injected for 48 hours, the BCA protein detection was detected by using the BCA protein concentration assay kit. The left ear of mouse was homogenized with 1 mL of PBS and the dilution factor equivalent to a mass volume ratio of 1:9 was calculated, then centrifuged at 1500 g for 10 minutes. […] […] was measured with a microplate reader, the standard curves were plotted, and the BCA concentrations were calculated. […]

Usually MIC stands for the smallest concentration in the dilution series that meets the test's criterion for growth inhibition. The low end stands for greater potency, the high end for weaker potency.

In brackets after ≈: the same amount, converted by molar mass.

`CN(C)c1cc2c(cn1)-c1ccc3c(=O)c(C(=O)O)cn(C4CC4)c3c1COC2` [Compound 6]: in experiment [1], the MIC was 0.06 µg/mL (≈ 0.153 µM). Moreover, the “CXCL1 Mean ± SD” value with CXCL1/KC (Balb/C mice, left ear homogenate, 48 hours after injection of Propionibacterium acnes, 15 μL applied at 4, 20, 28, 44 hours, drugs as hydrochloride) was 191.5 ± 32.71 pg/mg. In addition, in the experiment with CXCL1/KC (compared with acne model group, p<0.001, in words), the “CXCL1 content in the left ear tissues of mice after treatment” value is reported as “significantly reduced”.
